Where no end group is shown, it is not given here.

These results are taken from patent publication US11505580B2, “Leech polypeptide and use thereof” (priority 2019, dated 2022).

Holding throughout (format): cell-based
The subject of experiment [1] is IL-1. Nature of the experiment: ELISA of IL-1 secretion by macrophages RAW264.7. The settings on record: 0-800 μg/mL. An excerpt:
(§1) The effect of HE-D on the secretion of IL-1, IL-6, IL-12, and TNF-α by macrophages RAW264.7 was detected by ELISA.
For orientation: In an ELISA, binding on a coated surface is turned into a signal by an enzyme label.

Experiment [2] has as its system JNK. Nature of the experiment: Western-blot of JNK signaling pathway in LPS-induced RAW264.7 cells. The settings on record: RAW264.7 induced with LPS. As to the method: (§2) The mechanism of HE-D inhibiting macrophages RAW264.7 was tested by Western-blot.
Experiment [3] has as its system macrophage RAW264.7. The experiment in a line: Lysozyme activity assay. As to conditions: 0-800 μg/mL. As for the experimental part:
(§3) The effects of HE-D on the phagocytosis ability and lysozyme activity of macrophage RAW264.7 were measured by neutral red phagocytosis test and lysozyme activity assay.

In experiment [4] the test system is macrophages RAW264.7. Nature of the experiment: Transwell migration assay, LPS-induced macrophage RAW264.7 migration. The settings on record: 800 μg/mL, 1 μg/mL LPS. An excerpt:
In this example, a leech zymolyte HE was firstly prepared from […] by enzymolysis. […] Then, HE was separated and purified by chromatography on QSepharose FF strong basic anion exchange column, and chromatography on Superdex30, Superdexpeptide and G10 gel column, and Transwell assay was done to track the activity. Finally leech polypeptide HE4-1 having activity to inhibit the migration of macrophages RAW264.7 was obtained. Transwell migration assay was used to detect the activity of HE1-HE6 in inhibiting the macrophage migration. […] Transwell assay was used to detect the inhibition of HE-D on the migration activity of macrophages RAW264.7. The experiments were divided into five groups, including a blank control group, an LPS model group and 200, 400, 800 μg/mL HE-D groups.

The subject of experiment [5] is IL-6. The experiment in a line: ELISA of IL-6 secretion by macrophages RAW264.7. The settings on record: 0-800 μg/mL.
Text: as §1

Experiment [6] concerns macrophage RAW264.7. The experiment in a line: Neutral red phagocytosis test. The settings on record: 0-800 μg/mL. As for the experimental part: as §3
For experiment [7], the system named is IL-12. Nature of the experiment: ELISA of IL-12 secretion by macrophages RAW264.7. The settings on record: 0-800 μg/mL.
Text: as §1

The test system of experiment [8] is p38. Nature of the experiment: Western-blot of p38 signaling pathway in LPS-induced RAW264.7 cells. As to conditions: RAW264.7 induced with LPS. As for the experimental part: as §2
The subject of experiment [9] is TNF-α. The experiment in a line: ELISA of TNF-α secretion by macrophages RAW264.7. As to conditions: 400 and 800 μg/mL.
Text: as §1

As for EAGSAKELEGDPVAG [HE-D], the “secretion of IL-1” value in experiment [1] is given as “no significant effect”. Besides, in [2] (800 μg/mL), the “LPS-induced increase in expression level of phosphorylated JNK protein” value is reported as “significantly inhibit the increase”. Also, in experiment [2], the “expression of JNK protein” value is “no significant effect”. In experiment [3], the “lysozyme activity of macrophages RAW264.7” value is listed as “no obvious effect”. In experiment [4], the “inhibition rate of LPS-induced migration of macrophages RAW264.7” value came out at 14.9%. In addition, the “secretion of IL-6” value in experiment [5] is reported as “no significant effect”. In addition, in experiment [6], the “phagocytosis ability of macrophages RAW264.7” value is “no obvious effect”. For the same sequence, the “secretion of IL-12” value in experiment [7] is reported as “no significant effect”. The “LPS-induced increase in expression level of phosphorylated p38 protein” value in experiment [8] (800 μg/mL) is reported as “significantly inhibit the increase”. Besides, the “expression of total p38 protein” value in experiment [8] is given as “no significant effect”. In experiment [9], the “promotion effect on secretion of TNF-α” value is given as 11.4% and the “secretion of TNF-α” value is recorded as “promote the secretion”.
For “EAGSAKELEGDPVAG [HE4-1, leech polypeptide isolated and purified from HE4 by Superdex30, Superdexpeptide and G10 gel chromatography]”, the “inhibition rate of LPS-induced migration of macrophages RAW264.7” value in experiment [4] amounted to 15.2%.
